Laboratory results taken from PubChem BioAssay AID330 (DTP/NCI, 2004).
Values joined by “and” are separate entries in the source; they are usually repeats but may differ in a detail not shown here. Identical values can stand only once. Toxic doses and inconclusive results are not listed. Rule for the calls: active = survival T/C of 150% or more; inactive = T/C below 125% in these data.

System: P388 leukemia ip, CD2F1 mice, survival T/C
Experiment: NCI In Vivo Anticancer Drug Screen. Data for tumor model P388 Leukemia (intraperitoneal) in CD2F1 (CDF1) mice
Conditions: endpoint: median survival time, higher = longer survival
Outline: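 Mice carrying the transplanted tumor received test compound or vehicle. Survival was recorded in each group, and the value is the treated-group measurement divided by that of the vehicle-treated control group.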

[1] = dose: 50.0 mg/kg/injection, schedule: Q01DX009 (ip), vehicle: saline with Tween-80
[2] = dose: 60.0 mg/kg/injection, schedule: Q01DX005 (ip), vehicle: saline with Tween-80
[3] = dose: 120.0 mg/kg/injection, schedule: Q01DX005 (ip), vehicle: saline with Tween-80
[4] = dose: 240.0 mg/kg/injection, schedule: Q01DX005 (ip), vehicle: saline with Tween-80
[5] = dose: 50.0 mg/kg/injection, schedule: Q01DX005 (ip), vehicle: saline with Tween-80
[6] = dose: 100.0 mg/kg/injection, schedule: Q01DX005 (ip), vehicle: saline with Tween-80
[7] = dose: 200.0 mg/kg/injection, schedule: Q01DX005 (ip), vehicle: saline with Tween-80
[8] = dose: 50.0 mg/kg/injection, schedule: Q01DX005 (ip), vehicle: Klucel (hydroxypropylcellulose) (HPC)
[9] = dose: 50.0 mg/kg/injection, schedule: Q01DX005 (ip), vehicle: saline
[10] = dose: 100.0 mg/kg/injection, schedule: Q01DX005 (ip), vehicle: saline
[11] = dose: 200.0 mg/kg/injection, schedule: Q01DX005 (ip), vehicle: saline
[12] = dose: 100.0 mg/kg/injection, schedule: Q01DX001 (ip), vehicle: Klucel (hydroxypropylcellulose) (HPC)
[13] = dose: 100.0 mg/kg/injection, schedule: Q04DX003 (ip), vehicle: saline with Tween-80
[14] = dose: 50.0 mg/kg/injection, schedule: Q01DX009 (ip), vehicle: Klucel (hydroxypropylcellulose) (HPC)

Measured: T/C

[O-][n+]1c(-c2ccccc2)c(Cl)c(-c2ccccc2)n1O
inactive: dose: 1.5 mg/kg/injection, schedule: Q01DX005 (ip), vehicle: Klucel + Tween-80 99 % of control | dose: 3.0 mg/kg/injection, schedule: Q01DX005 (ip), vehicle: Klucel + Tween-80 100 % of control | dose: 6.0 mg/kg/injection, schedule: Q01DX005 (ip), vehicle: Klucel + Tween-80 96 % of control | dose: 60.0 mg/kg/injection, schedule: Q01DX005 (ip), vehicle: Klucel + Tween-80 98 % of control

COC1C(C)OC(O[C@@H]2C[C@@](C)(O)Cc3cc4c(c(O)c32)C(=O)c2c(O)cc3c(c2C4=O)O[C@@H]2O[C@@]3(C)[C@@H](O)[C@H](N(C)C)[C@H]2O)C(OC)C1(C)OC (some centres not stated)
inactive: dose: 3.12 mg/kg/injection, schedule: Q01DX009 (ip), vehicle: other 119 % of control

N#CC(c1ccc(Cl)cc1)C(c1ccccc1)c1ccccc1 (configuration not stated)
inactive: [1] 112 % of control | dose: 100.0 mg/kg/injection, schedule: Q01DX009 (ip), vehicle: saline with Tween-80 107 % of control | dose: 200.0 mg/kg/injection, schedule: Q01DX009 (ip), vehicle: saline with Tween-80 112 % of control

COc1ccc(C(c2cc3c(cc2O)OCO3)N2CCN(C(c3ccc(OC)c(O)c3)c3cc4c(cc3O)OCO4)CC2)cc1O (configuration not stated)
inactive: [2] 96 % of control | [3] 101 % of control | [4] 112 % of control

CCCCCNS(=O)(=O)c1ccc(C)cc1
inactive: dose: 50.0 mg/kg/injection, schedule: Q01DX009 (ip), vehicle: saline + alcohol 107 % of control | dose: 100.0 mg/kg/injection, schedule: Q01DX009 (ip), vehicle: saline + alcohol 107 % of control | dose: 200.0 mg/kg/injection, schedule: Q01DX009 (ip), vehicle: saline + alcohol 118 % of control | dose: 400.0 mg/kg/injection, schedule: Q01DX009 (ip), vehicle: saline + alcohol 101 % of control

C=CC1CC(NC(=O)OC)C(=O)O1 (configuration not stated)
inactive: [5] 104 % of control | [6] 104 % of control | [7] 99 % of control

CCOC(=O)NNC(=O)Nc1ccc(O[Si](C)(C)C)cc1
inactive: [2] 109 % of control | [3] 102 % of control | [4] 100 % of control

CCOC(=O)CNC(=O)C(CSSCC(NC(=O)OCc1ccccc1)C(=O)O)NC(=O)OCc1ccccc1 (configuration not stated)
inactive: [8] 97 % of control | dose: 100.0 mg/kg/injection, schedule: Q01DX005 (ip), vehicle: Klucel (hydroxypropylcellulose) (HPC) 97 % of control | dose: 200.0 mg/kg/injection, schedule: Q01DX005 (ip), vehicle: Klucel (hydroxypropylcellulose) (HPC) 99 % of control

CC(C(=O)c1ccc(Cl)cc1)C1(O)C(=O)Nc2ccccc21 (configuration not stated)
inactive: [2] 108 % of control | [3] 111 % of control | [4] 94 % of control

O=C1CN(CCN2CCOCC2)CC(=O)N2CCCCN12
inactive: [9] 99 % of control | [10] 102 % of control | [11] 107 % of control

O=C(NC(=O)c1cccc2ccccc12)NC(=S)c1ccccc1
inactive: dose: 100.0 mg/kg/injection, schedule: Q01DX001 (ip), vehicle: saline 92 % of control | dose: 200.0 mg/kg/injection, schedule: Q01DX001 (ip), vehicle: saline 88 % of control | dose: 400.0 mg/kg/injection, schedule: Q01DX001 (ip), vehicle: saline 86 % of control

COC(=O)C(=O)C(C#N)c1ccc(C)cc1 (configuration not stated)
inactive: [2] 104 % of control | [3] 104 % of control | [4] 103 % of control

COC(=O)C1C(C2OC3OC(C)(C)OC3C3OC(C)(C)OC32)N1C(=O)Cl (configuration not stated)
inactive: dose: 100.0 mg/kg/injection, schedule: Q04DX002 (ip), vehicle: saline with Tween-80 102 % of control | dose: 200.0 mg/kg/injection, schedule: Q04DX002 (ip), vehicle: saline with Tween-80 103 % of control

COc1ccc(C(=O)/C=C/c2ccc(OC)c(OC)c2OCc2ccccc2)c(O)c1
inactive: [12] 94 % of control | dose: 200.0 mg/kg/injection, schedule: Q01DX001 (ip), vehicle: Klucel (hydroxypropylcellulose) (HPC) 88 % of control

C=C1CC23CCC4C(C)(C(=O)O)CCCC4(C)C2CCC1C3 (configuration not stated)
inactive: [5] 116 % of control | [6] 116 % of control | [7] 117 % of control | dose: 400.0 mg/kg/injection, schedule: Q01DX005 (ip), vehicle: saline with Tween-80 107 % of control

O=C1C=CC(=O)[C@H]2CC=C3OC4OC5(CCCCC5)OC4[C@H]3[C@@H]12 (some centres not stated)
inactive: [3] 94 % of control | [4] 97 % of control

CCC12C=CCN3CCC4(c5cc(C6(C(=O)OC)CCCCCc7c6[nH]c6ccccc76)c(OC)cc5N(C)C4C(O)(C(=O)OC)C1OC(C)=O)C32 (configuration not stated)
inactive: dose: 12.5 mg/kg/injection, schedule: Q01DX001 (ip), vehicle: distilled water + Tween-80 106 % of control | dose: 25.0 mg/kg/injection, schedule: Q01DX001 (ip), vehicle: distilled water + Tween-80 109 % of control | dose: 50.0 mg/kg/injection, schedule: Q01DX001 (ip), vehicle: distilled water + Tween-80 106 % of control | dose: 100.0 mg/kg/injection, schedule: Q01DX001 (ip), vehicle: distilled water + Tween-80 95 % of control | dose: 200.0 mg/kg/injection, schedule: Q01DX001 (ip), vehicle: distilled water + Tween-80 95 % of control

CC(=O)[O-].O=C(N/N=C/c1ccccc1[O-])c1ccccc1.[Zn+2]
inactive: [2] 95 % of control | [3] 106 % of control

O=c1ccc(=O)n(-c2ccccc2)[nH]1
inactive: dose: 6.25 mg/kg/injection, schedule: Q01DX009 (ip), vehicle: saline with Tween-80 114 % of control | dose: 12.5 mg/kg/injection, schedule: Q01DX009 (ip), vehicle: saline with Tween-80 100 % of control | dose: 25.0 mg/kg/injection, schedule: Q01DX009 (ip), vehicle: saline with Tween-80 118 % of control | [1] 119 % of control

CCCCCC(Cn1ccnc1)c1ccccc1Br (configuration not stated)
inactive: dose: 25.0 mg/kg/injection, schedule: Q04DX003 (ip), vehicle: saline with Tween-80 106 % of control | dose: 33.0 mg/kg/injection, schedule: Q04DX003 (ip), vehicle: saline with Tween-80 107 % of control | dose: 50.0 mg/kg/injection, schedule: Q04DX003 (ip), vehicle: saline with Tween-80 100 % of control and 108 % of control and 122 % of control | dose: 75.0 mg/kg/injection, schedule: Q04DX003 (ip), vehicle: saline with Tween-80 92 % of control | [13] 106 % of control and 111 % of control and 90 % of control

NCCc1cc2ccccc2c2ccccc12
inactive: dose: 12.5 mg/kg/injection, schedule: Q01DX005 (ip), vehicle: Klucel (hydroxypropylcellulose) (HPC) 99 % of control | dose: 25.0 mg/kg/injection, schedule: Q01DX005 (ip), vehicle: Klucel (hydroxypropylcellulose) (HPC) 99 % of control | [8] 99 % of control and 95 % of control

O=P1(Oc2ccccc2)NC2CCCCC2N1 (configuration not stated)
inactive: dose: 12.5 mg/kg/injection, schedule: Q01DX005 (ip), vehicle: Klucel + Tween-80 95 % of control | dose: 25.0 mg/kg/injection, schedule: Q01DX005 (ip), vehicle: Klucel + Tween-80 97 % of control | dose: 50.0 mg/kg/injection, schedule: Q01DX005 (ip), vehicle: Klucel + Tween-80 95 % of control | [12] 94 % of control

CC1(C)OP(=O)(O)c2ccccc21
inactive: [14] 100 % of control | dose: 100.0 mg/kg/injection, schedule: Q01DX009 (ip), vehicle: Klucel (hydroxypropylcellulose) (HPC) 100 % of control | dose: 200.0 mg/kg/injection, schedule: Q01DX009 (ip), vehicle: Klucel (hydroxypropylcellulose) (HPC) 88 % of control

COC(=O)Nc1ccc(C2OCCN2C(=O)Nc2ccc(Cl)cc2)cc1 (configuration not stated)
inactive: [5] 87 % of control | [6] 88 % of control

COC(=O)C[CH2][Sn]([CH2]CC(=O)OC)([c]1ccccc1)[c]1ccccc1
inactive: [9] 100 % of control | [10] 100 % of control | [11] 97 % of control

O=c1[nH]c2ccccc2c2ccccc12
inactive: [13] 90 % of control | dose: 200.0 mg/kg/injection, schedule: Q04DX003 (ip), vehicle: saline with Tween-80 90 % of control | dose: 400.0 mg/kg/injection, schedule: Q04DX003 (ip), vehicle: saline with Tween-80 90 % of control

Oc1c(Cl)cc(Cl)cc1CN1CCCCC1
inactive: dose: 50.0 mg/kg/injection, schedule: Q01DX009 (ip), vehicle: suspension in saline 91 % of control | dose: 100.0 mg/kg/injection, schedule: Q01DX009 (ip), vehicle: suspension in saline 98 % of control | dose: 200.0 mg/kg/injection, schedule: Q01DX009 (ip), vehicle: suspension in saline 91 % of control

Cc1nc2sccn2c1C=O
inactive: dose: 12.5 mg/kg/injection, schedule: Q01DX009 (ip), vehicle: Klucel (hydroxypropylcellulose) (HPC) 109 % of control | dose: 25.0 mg/kg/injection, schedule: Q01DX009 (ip), vehicle: Klucel (hydroxypropylcellulose) (HPC) 114 % of control | [14] 114 % of control | [12] 97 % of control
